The source of these data is patent publication US11382848B2, “Compounds reducing malodour perception and the use thereof” (CHEMCOM S.A., priority 2017, dated 2022).

Assay [1] concerns perception of androstenone. In words: Alternative sensory test with Tedlar bags and expert panel. As for the experimental part: The test consists, in a first step, in microinjecting androstenone (at 0.6% in ethanol), compound 1 (pure) or androstenone+compound 1 in 10 L Tedlar™ bags specially conceived for gas sampling, previously loaded with a known volume of pure air (from oil free compressor with additional charcoal filters). Than the compound of interest (EtOH solution) is injected with a high accuracy micro-syringe through a septum placed on the tap-valve.
The odour presentation device consists of a cylinder to be filled with clean air. The bag is inserted in the cylinder and connected to a sampling installation in the cylinder by means of a valve. By controlled injection of clean air into the cylinder, the interior pressure is raised and the sampling air is pressed in a controlled manner out of the sample container through the opened valve. This sampling air is transferred to the nose of the corresponding sensory odour panel member by means of a funnel. By this means, each sensory odour panel member receives an identical sample with a standardized volume flow and a constant provision time. The outlet flow rate is between 10-20 L/min (in order to avoid any mixing with ambient air before reaching the nose).
The expert panel is entering the room 15 minutes before starting the test. The basic standard test is a rating in intensity and the use of the closest chemical descriptors according to the following order of presentation:
Each assessor can smell for few seconds. A pause of min. 1 minute is considered between presentations.
The individual rating is done with a resolution of 0.5 on a scale ranging from 0 (no odour) to 5 (saturating odour).

For assay [2], the system named is forskolin-induced, receptor-independent production of cAMP / Luciferase. Put plainly: Forskolin control in cells not expressing the receptor (luciferase assay). The format is cell-based. The conditions noted are these: cells that did not express the receptor, stimulated by forskolin. As for the experimental part:
(§1) Briefly, cells were plated on poly-D-lysine-coated 96-well plates (BD Bioscience, Erembodegem-Dorp, Belgium) and transfected with a plasmid containing CRE-luciferase and a plasmid containing OR7D4. Sixteen hours after transfection, the culture medium was replaced by serum-free EMEM containing the tested ligands at a determined concentration. After four hours of incubation at 37° C. degree, cells were lysed and processed for luminescence measurement according to the manufacturer's protocols. Luminescence emission was recorded on a Spectra Max M5 reader (Molecular Devices, Sunnyvale, Calif.). Results were expressed as percentage of the response induced by 10 μM of the adenylate cyclase activator Forskolin.

The target of assay [3] is T1, human olfactory receptor OR7D4 (Homo sapiens, UniProt Q8NG98).
T1 construct: transfected with a plasmid containing CRE-luciferase and a plasmid containing OR7D4; expressed in transfected cells; host or cells: HEK293T stably expressing olfactory chaperone proteins of the RTP family
T1 sequence (Q8NG98 1-312): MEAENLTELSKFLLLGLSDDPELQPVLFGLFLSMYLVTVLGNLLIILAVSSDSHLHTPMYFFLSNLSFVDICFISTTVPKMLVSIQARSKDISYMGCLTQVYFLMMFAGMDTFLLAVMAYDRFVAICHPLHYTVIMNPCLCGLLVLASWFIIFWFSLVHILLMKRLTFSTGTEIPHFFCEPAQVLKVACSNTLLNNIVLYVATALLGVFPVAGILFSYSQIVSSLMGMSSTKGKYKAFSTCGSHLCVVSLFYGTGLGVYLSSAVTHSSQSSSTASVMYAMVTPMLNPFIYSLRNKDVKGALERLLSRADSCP
In words: OR7D4 luciferase gene reporter assay (antagonism of agonist-induced activation). The class given is cell-based. As for the experimental part: Cells were maintained in minimal essential medium (EMEM, Lonza) containing 10% fetal bovine serum (M10). HEK293T stably expressing olfactory chaperone proteins from the RTP family as described in WO 2006/002161 (introduced here as a reference) were generated by transfecting HEK293T cells with expression vector containing the chaperone gene sequences and a resistance gene to puromycin, using Lipofectamine 2000. A recombinant cell population was selected by adding 10 μg/ml of puromycin into the culture medium. Monoclonal populations were further obtained by limit dilution procedure. Briefly, a cell suspension was diluted to contain 1 cell per ml and this dilution was dispatched in poly-D-lysine-coated 96 well plates (200 μl of dilution per well). After 5 days of culture, the presence and number of cell colonies per well was checked under a phase contrast microscope. After 5 additional days of culture, wells containing a single colony were harvested and each collected population was amplified independently.
The 5-alpha-androst-16-ene-3-one, used as an agonist of the human olfactory receptor OR7D4 and the tested molecules were diluted at a concentration of 1 mole/litre (M) into dimethyl sulfoxide (DMSO) to generate stock solutions.
For concentration-response analysis, serial dilutions of the tested molecules were prepared from stock solutions in EMEM plated into 96-well plates.
as §1
The ability of the compounds of the invention to inhibit the activity of androstenone on OR7D4 receptor was assessed by the luciferase assay described above.
To determine whether a molecule antagonizes OR7D4, this compound was introduced in the incubation medium of the Luciferase assay described above at a concentration of either 316 μM, 100 μM or 31.6 μM, along with the known activator of the receptor 5α-androst-16-en-3-one at a concentration of 31.6 μM. Molecules were considered as “hits” i.e., as having an antagonist effect on the receptor, if they induced a decrease of at least 50% of the luciferase production elicited upon activation of OR7D4 by 5α-androst-16-en-3-one.
Putative antagonist molecule libraries containing compound 1 and other types of molecules were used to identify antagonist of the receptor OR7D4. The screening campaign was performed on the OR7D4 with a series of 112 putative antagonist molecules. In this screening campaign, compound 1 was identified as a hit.
The compound 1 was further confirmed as antagonist of OR7D4 by performing dose-response analysis using the luciferase assay. Different concentrations of compound 1, ranging from 31.6 nM to 1 mM were tested on HEK293 cell expressing OR7D4 and stimulated with 31.6 μM of 5α-androst-16-en-3-one.
The antagonistic property of compound 1 on OR7D4 was further confirmed by measuring the response of the OR7D4 to 5α-androsta-4,16-dien-3-one in presence of compound 1, using the luciferase assay as describe hereinabove. The observed inhibition was in the same range as the one observed when stimulating the receptor with 5α-androst-16-en-3-one.
To further explore the antagonism on OR7D4, a series of compounds structurally related to compound 1 were synthesized and assessed as antagonists of OR7D4 by dose-response analysis using the luciferase assay. […]

In the case of `CCCCCCC(=C\c1ccccc1)/C=C(\C)C(=O)OCC` [Compound 1, ethyl (E)-4-((E)-benzylidene)-2-methyldec-2-enoate], the “typical odour of sweat of Androstenone when smelled in the presence of the compound” value in assay [1] (Androstenone + compound 1) is “completely disappears”. In addition, the intrinsic smell result in assay [1] (compound 1 alone) is listed as “mushroom”. Moreover, the odour intensity entry in assay [1] (compound 1 alone compared with androstenone alone) was “lower than the one of androstenone alone”. Besides, in assay [2], the “forskolin-induced production of Luciferase” value is recorded as “not affected”. Moreover, the “Luciferase activity elicited by 5α-androst-16-en-3-one, dose-response (FIG. 1)” value in assay [3] (31.6 nM to 1 mM compound, HEK293 cell expressing OR7D4 stimulated with 31.6 μM 5α-androst-16-en-3-one) is given as “decrease of Luciferase activity”. The “hit in antagonist screening (decrease of at least 50% of the luciferase production)” value in assay [3] (compound at 316 μM, 100 μM or 31.6 μM with 5α-androst-16-en-3-one at 31.6 μM, 112 putative antagonist molecules screened) is on record as “hit”. In addition, the IC50 in assay [3] (dose-response, luciferase assay, half decrease of the luciferase production obtained without antagonist, androstenone at 31.6 micromolar) is 2000 nM; in assay [3] (response of OR7D4 to 5α-androsta-4,16-dien-3-one in presence of compound) it was 2500 nM.
